Results published in ChEMBL document CHEMBL1154077, “Carbonic anhydrase inhibitors. Inhibition studies of a coral secretory isoform by sulfonamides” (Bioorg Med Chem, 2009).

Target: T1, Alpha carbonic anhydrase (Stylophora pistillata, UniProt B5SU02)
T1 sequence (B5SU02 whole entry): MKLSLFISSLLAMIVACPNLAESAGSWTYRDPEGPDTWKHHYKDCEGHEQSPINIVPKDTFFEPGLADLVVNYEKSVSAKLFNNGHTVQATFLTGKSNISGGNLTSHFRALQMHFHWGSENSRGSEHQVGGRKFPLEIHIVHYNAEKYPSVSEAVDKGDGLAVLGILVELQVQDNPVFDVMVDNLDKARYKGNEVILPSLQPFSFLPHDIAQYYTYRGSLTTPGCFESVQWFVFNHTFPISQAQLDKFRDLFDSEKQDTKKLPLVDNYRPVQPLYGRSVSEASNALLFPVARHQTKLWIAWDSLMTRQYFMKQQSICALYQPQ
Description: Inhibition of cloned Stylophora pistillata alpha-CA expressed in human HEK293 cells by stopped-flow CO2 assay

SMILES	Ki
NNc1ccccc1S(N)(=O)=O	2510 nM
Nc1nnc(S(N)(=O)=O)s1	105 nM
Nc1ccc(S(=O)(=O)NCc2ccc(S(N)(=O)=O)cc2)cc1	29.8 nM
Nc1cc(Cl)c(S(N)(=O)=O)cc1S(N)(=O)=O	295 nM
Nc1ccc(S(N)(=O)=O)cc1I	88.3 nM
Nc1ccc(S(=O)(=O)Nc2nnc(S(N)(=O)=O)s2)cc1	27.6 nM
Nc1nccc(Nc2ccc(S(N)(=O)=O)cc2)n1	25.4 nM
Nc1ccc(S(N)(=O)=O)cc1Br	104 nM
Cn1nc(S(N)(=O)=O)sc1=N	91.9 nM
NS(=O)(=O)c1ccc(CCO)cc1	770 nM
Nc1ccc(S(N)(=O)=O)cc1F	75.1 nM
NS(=O)(=O)c1ccc(CO)cc1	768 nM
NCCc1ccc(S(N)(=O)=O)cc1	94.3 nM
Nc1ccc(S(N)(=O)=O)cc1Cl	87.5 nM
Nc1ccc(S(=O)(=O)NCCc2ccc(S(N)(=O)=O)cc2)cc1	19.7 nM
NS(=O)(=O)c1ccc(S(=O)(=O)Nc2cccc3c(Cl)c[nH]c23)cc1	163 nM
Nc1cc(C(F)(F)F)c(S(N)(=O)=O)cc1S(N)(=O)=O [2,4-DISULFAMYLTRIFLUOROMETHYLANILINE]	367 nM
NS(=O)(=O)c1nnc(NS(=O)(=O)c2ccccc2)s1 [BENZOLAMIDE]	20.4 nM
CCN[C@H]1CN(CCCOC)S(=O)(=O)c2sc(S(N)(=O)=O)cc21 [BRINZOLAMIDE]	48.2 nM
NS(=O)(=O)c1ccc(C(=O)O)cc1 [CARZENIDE]	435 nM
Cc1ccc(-c2cc(C(F)(F)F)nn2-c2ccc(S(N)(=O)=O)cc2)cc1 [CELECOXIB]	34.2 nM
NCc1ccc(S(N)(=O)=O)cc1 [MAFENIDE]	82.5 nM
Cc1ccc(S(N)(=O)=O)cc1 [P-TOLUENESULFONAMIDE]	614 nM
O=C1NS(=O)(=O)c2ccccc21 [SACCHARIN]	40.3 nM
Nc1ccc(S(N)(=O)=O)cc1 [SULFANILAMIDE]	364 nM
CC1(C)O[C@@H]2[C@@H](CO[C@@]3(COS(N)(=O)=O)OC(C)(C)O[C@@H]23)O1 [TOPIRAMATE]	29.1 nM
